Test results taken from patent publication US20250255867A1 (Kadmon Corporation, LLC, priority 2022, published 2025).

How the values were obtained:
Format in all cases: in vivo, human
subjects with cGVHD = experiment: Example 2: failure-free survival, overall survival, NRM, relapse; conditions: for FFS at 6 mo (95% CI) / FFS at 12 mo (95% CI): mITT population
Protocol: All responses were assessed by the study site investigators.

patients with cGVHD [1] = experiment: Example 1: corticosteroid and calcineurin inhibitor sparing; conditions: for Participants who discontinued CNI, number / Participants who discontinued CNI, percent / Participants with reduction in CNI dose, number / Participants with reduction in CNI dose, percent: baseline up to EOT
Protocol: Corticosteroid sparing. […] The mean corticosteroid dose was reduced by 45%. The median time to corticosteroid therapy discontinuation was 29 weeks (range, 8-77 weeks).
Change from Baseline in Corticosteroids Dose. An EOT visit was performed within 3 days after the participant's last dose of study drug. Baseline value was defined as valid and last non-missing value obtained within 28 days prior to participant receiving first study medication. The mITT population was analyzed, with the ‘overall number of participants analyzed’=participants with available data for this outcome measure.
Change from Baseline in Calcineurin Inhibitor (CNI). Calcineurin inhibitors included systemic tacrolimus and cyclosporine. Number of participants who took CNI at Baseline and had reduction and discontinuation in CNI use as compared to Baseline during the study are reported in this outcome measure. EOT visit was performed within 3 days after the participant's last dose of study drug. Baseline value was defined as valid and last non-missing value obtained within 28 days prior to participant receiving first study medication.

patients with cGVHD [2] = experiment: Example 1: time to next therapy, failure-free survival, overall survival
Protocol: Time to next therapy (TTNT). The TTNT was defined as the time (in months) from first treatment to the time of new systemic cGVHD treatment. TTNT was censored by last response assessment or long term follow up assessment, whichever was earlier. Kaplan-Meier survival method was used for the analysis. […] Analysis was performed on mITT population.
Failure-free survival was defined as the time (in months) from first dose of study drug to either the start of another new systemic treatment for cGVHD, relapse of the underlying disease or death. If no such events happened, FFS was censored by last response assessment or long term follow up assessment, whichever was the latest and available. Kaplan-Meier survival method was used for the analysis. Analysis was performed on mITT population.
Overall survival was defined as the time (in months) from first dose of study drug to the death due to any reason. If there was no death, OS was censored by last visit, last long term follow-up, or study cutoff date, whichever was the latest. Kaplan-Meier survival method was used for the analysis.

patients with cGVHD [3] = experiment: Example 1: Lee cGVHD Symptom Scale (LSS)
Protocol: All responses were assessed by the investigators.
QOL assessment. […] Thirty-five percent of all patients (37% of responders and 32% of nonresponders) reported a clinically meaningful improvement in LSS score on consecutive assessments.
Change From Baseline in Overall Score on Lee cGvHD Symptom Scale at Specified Time Points. Lee cGVHD symptom scale, a patient-reported symptom scale used to measure symptom burden and has 7 subscales (Skin, Eyes and Mouth, Breathing, Eating and Digestion, Muscles and Joints, Energy, and Mental and Emotional) with ratings as follows: 0—Not at all, 1—Slightly, 2—Moderately, 3—Quite a bit, 4—Extremely, with lower values representing better outcome. Score for each subscale was normalized to a score ranged from 0 to 100, where higher score-worse symptoms. An overall score was calculated as average of these 7 subscales. EOT visit was performed within 3 days after the participant's last dose of study drug. Baseline value was defined as valid and last non-missing value obtained within 28 days prior to participant receiving first study medication. […] Analysis was performed on mITT population. Here, ‘number analyzed’=participants with available data for each specified category. Here, ‘0’ in the number analyzed field signifies that none of the participants were available for the analysis at the specified time points.

[4] = Total N=54, listed as belumosudil

For `CC(C)NC(=O)COc1cccc(-c2nc(Nc3ccc4[nH]ncc4c3)c3ccccc3n2)c1` [Belumosudil, 2-{3-[4-(1H-indazol-5-ylamino)-2-quinazolinyl]phenoxy}-N-(propan-2-yl) acetamide], the “FFS at 6 mo (95% CI)” value (subjects with cGVHD; 200 mg daily (n = 66)) was 73 (61-83) %, the “FFS at 12 mo (95% CI)” value (subjects with cGVHD; 200 mg daily (n = 66)) was 57 (44-68) % and the “FFS at 6 mo (95% CI)” value (subjects with cGVHD; 200 mg twice daily (n = 66)) was 76 (63-84) %. For the same compound, the “FFS at 12 mo (95% CI)” value (subjects with cGVHD; 200 mg twice daily (n = 66)) was 56 (43-67) %, the “Overall FFS rate at 12 months” value (subjects with cGVHD; 95% CI, 47-64) was 56% and the “Overall FFS rate at 6 months” value (subjects with cGVHD; 95% CI, 66-81) was 75%. For the same compound, the “2-year OS rate” value (subjects with cGVHD; 95% CI, 82-93) was 89%, the “Failure event: initiation of a new systemic cGVHD therapy” value (subjects with cGVHD; in vivo) was 38% and the Relapse rate (subjects with cGVHD; in vivo) was 3%. The CS discontinuation (patients with cGVHD [1]; Cohort 1 200 mg QD) was 4 (24, 7 to 50) %, the “Mean percent change in CS dose from baseline, nonresponder” value (“Mean percent change … nonresponder” for short) (patients with cGVHD [1]; Cohort 1 200 mg QD) was −26% and the “Mean percent change in CS dose from baseline, overall” value (from here on “Mean percent change … overall”) (patients with cGVHD [1]; Cohort 1 200 mg QD) was −50%. The “Mean percent change in CS dose from baseline, responder” value (patients with cGVHD [1]; Cohort 1 200 mg QD) was −63%, the “Proportion with CS reduction” value (patients with cGVHD [1]; Cohort 1 200 mg QD) was 13 (76, 50 to % and the “Change From Baseline in Corticosteroids Dose, Mean (Standard Deviation)” value (patients with cGVHD [1]; Cohort 1 200 mg QD, baseline to end of treatment) was −0.110 (0.101) milligrams per kilogram per day. The “Participants who discontinued CNI, number” value (patients with cGVHD [1]; Cohort 1: 200 mg QD) was 0, the “Participants who discontinued CNI, percent” value (patients with cGVHD [1]; Cohort 1: 200 mg QD) was “(0%)” and the “Participants with reduction in CNI dose, number” value (patients with cGVHD [1]; Cohort 1: 200 mg QD) was 5. The “Participants with reduction in CNI dose, percent” value (patients with cGVHD [1]; Cohort 1: 200 mg QD) was “(83%)”, the CS discontinuation (patients with cGVHD [1]; Cohort 2 200 mg BID) was 2 (13, 2 to 38) % and the “Mean percent change … nonresponder” value (patients with cGVHD [1]; Cohort 2 200 mg BID) was −37%. For the same compound, the “Mean percent change … overall” value (patients with cGVHD [1]; Cohort 2 200 mg BID) was −36%, the “Mean percent change in CS dose from baseline, responder” value (patients with cGVHD [1]; Cohort 2 200 mg BID) was −36% and the “Proportion with CS reduction” value (patients with cGVHD [1]; Cohort 2 200 mg BID) was 9 (56, 30 to 80) %. For the same compound, the “Participants who discontinued CNI, number” value (patients with cGVHD [1]; Cohort 2: 200 mg BID) was 1, the “Participants who discontinued CNI, percent” value (patients with cGVHD [1]; Cohort 2: 200 mg BID) was 17% and the “Participants with reduction in CNI dose, number” value (patients with cGVHD [1]; Cohort 2: 200 mg BID) was 5. The “Participants with reduction in CNI dose, percent” value (patients with cGVHD [1]; Cohort 2: 200 mg BID) was 83%, the CS discontinuation (patients with cGVHD [1]; Cohort 3 400 mg QD) was 4 (19, 5 to 42) % and the “Mean percent change … nonresponder” value (patients with cGVHD [1]; Cohort 3 400 mg QD) was −19%. The “Mean percent change … overall” value (patients with cGVHD [1]; Cohort 3 400 mg QD) was −47%, the “Mean percent change in CS dose from baseline, responder” value (patients with cGVHD [1]; Cohort 3 400 mg QD) was −63% and the “Proportion with CS reduction” value (patients with cGVHD [1]; Cohort 3 400 mg QD) was 14 (67, 43 to %. The “Participants who discontinued CNI, number” value (patients with cGVHD [1]; Cohort 3: 400 mg QD) was 3, the “Participants who discontinued CNI, percent” value (patients with cGVHD [1]; Cohort 3: 400 mg QD) was 27% and the “Participants with reduction in CNI dose, number” value (patients with cGVHD [1]; Cohort 3: 400 mg QD) was 6. For the same compound, the “Participants with reduction in CNI dose, percent” value (patients with cGVHD [1]; Cohort 3: 400 mg QD) was 55%, the “Mean percent change … nonresponder” value (patients with cGVHD [1]; Total) was −26% and the “Mean percent change … overall” value (patients with cGVHD [1]; Total) was −45%. For the same compound, the “Mean percent change in CS dose from baseline, responder” value (patients with cGVHD [1]; Total) was −55%, the CS discontinuation (patients with cGVHD [1]; Total N=54) was “Approximately 20%” and the CS discontinuation (patients with cGVHD [1]; Total N=54, listed as KD025) was 10 (19, 9 to 31) %. The “Proportion with CS reduction” value (patients with cGVHD [1]; Total N=54, listed as KD025) was 36 (67, 53 to %, the CS discontinuation (patients with cGVHD [1]; [4]) was 19% and the “Proportion with CS reduction” value (patients with cGVHD [1]; [4]) was 67%. For the same compound, the “Mean corticosteroid dose reduction” value (patients with cGVHD [1]; all patients) was 45%, the “Mean corticosteroid dose reduction” value (patients with cGVHD [1]; nonresponders) was 26% and the “Median time to corticosteroid therapy discontinuation” value (patients with cGVHD [1]; range, 8-77 weeks) was 29 weeks. The “Mean corticosteroid dose reduction” value (patients with cGVHD [1]; responders) was 55%, the “FFS rate at 6 months” value (patients with cGVHD [2]) was 76% and the “FFS rate at 12 months” value (patients with cGVHD [2]) was 47%. The “Clinically significant improvement (LSS), nonresponder” value (patients with cGVHD [3]; Cohort 1 200 mg QD) was 1/6 (17, 0.4 to %, the “Clinically significant improvement (LSS), responder” value (patients with cGVHD [3]; Cohort 1 200 mg QD) was 8/11 (73, 39 to % and the “Clinically significant improvement (LSS), overall” value (patients with cGVHD [3]; Cohort 1 200 mg QD, decrease ≥7 points) was 9 (53, 28 to 77) %. The “Clinically significant improvement (LSS), nonresponder” value (patients with cGVHD [3]; Cohort 2 200 mg BID) was 4/5 (80, 28 to %, the “Clinically significant improvement (LSS), overall” value (patients with cGVHD [3]; Cohort 2 200 mg BID) was 7 (44, 20 to 70) % and the “Clinically significant improvement (LSS), responder” value (patients with cGVHD [3]; Cohort 2 200 mg BID) was 3/11 (27, 6 to %. For the same compound, the “Clinically significant improvement (LSS), nonresponder” value (patients with cGVHD [3]; Cohort 3 400 mg QD) was 2/8 (25, 3 to %, the “Clinically significant improvement (LSS), overall” value (patients with cGVHD [3]; Cohort 3 400 mg QD) was 11 (52, 30 to % and the “Clinically significant improvement (LSS), responder” value (patients with cGVHD [3]; Cohort 3 400 mg QD) was 9/13 (69, 39 to %. The “Clinically significant improvement (LSS), nonresponder” value (patients with cGVHD [3]; Total) was 7/19 (37, 16 to %, the “Clinically significant improvement (LSS), responder” value (patients with cGVHD [3]; Total) was 20/35 (57, 39 to % and the “Clinically significant improvement (LSS), overall” value (patients with cGVHD [3]; Total N=54, listed as KD025) was 27 (50, 36 to %. The “Clinically significant improvement (LSS), overall” value (patients with cGVHD [3]; [4]) was 50%.
